From patent publication US10072014B2 (Janssen Pharmaceutica NV, priority 2014, dated 2018)

Experiments:
rats = assay: Reversal of the effect of the mGluR2 PAM JNJ-42153605-induced inhibition of scopolamine-induced hyperlocomotion; format: in vivo; conditions: Rattus norvegicus, PO, criterion for reversal: total distance >1500 cm, read-out: ED50 SCOP JNJ-42153605
Experimental: 2) Reversal of the Effect of the mGluR2 PAM JNJ-42153605-induced Inhibition of Scopolamine-induced Hyperlocomotion Apparatus
Motor activity was measured in microprocessor-based motor activity arenas (closed gray PVC cylinders with a height of 39 cm and a diameter of 31 cm). Each arena was placed on an infrared LED (8×8 LEDs) lit box (white PVC squared box; 40×40 cm^2; height 12.5 cm. An infrared-sensitive tube camera and a white light source were mounted to the ceiling above the observation chamber to track the animal. The total distance traveled (cm) was recorded and analyzed using the Noldus Ethovision XT Video Tracking System (Version 7.0.418; Noldus, Wageningen, The Netherlands). The intensity of the light within the activity cages (measured in the centre at the level of the floor) ranged between 4 and 8 LUX.
The rats were pretreated with test compound or vehicle at 60 min before the start of the activity recordings and placed into individual cages. The rats were challenged with JNJ-42153605 (3-(cyclopropylmethyl)-7-(4-phenylpiperidin-1-yl)-8-(trifluoromethyl)-[1,2,4]triazolo[4,3-a]pyridine; WO2010/130424; Cid et al. J. Med. Chem. 2012, 55, 8770-8789) (20 mg/kg, i.v.) 30 min before the start of the activity recording combined with scopolamine (0.16 mg/kg, i.v.) just before the start of the activity measurements. Immediately after the injection of scopolamine, the rats were placed into the activity monitors and total distance traveled over the first 30 min was measured.
Solvent-pretreated Control Rats.
Animals receiving the combination of JNJ-42153605 and scopolamine (n=433) almost always traveled a distance of less than 1500 cm (<1500 cm) (only 2.5% of the control rats traveled a distance of more than 1500 cm (>1500 cm)). On the other hand, animals challenged with scopolamine alone (n=215) always traveled a total distance of more than 1500 cm (>1500 cm) and almost always (in 95.8% of the rats) a distance of more than 4400 cm (>4400 cm). […] For reversal of the inhibitory effect of JNJ-42153605 on the scopolamine-induced hyperlocomotion, the following all-or-none criteria were adopted: (1) reversal: total distance>1500 cm.

human mGlu2 receptor = target: T1, human mGlu2 receptor (Homo sapiens, UniProt Q14416); assay: [35S]GTPγS binding assay, negative allosteric modulation of mGluR2; format: biochemical; conditions: for Emax: maximal % inhibition relative to the control glutamate response (EC80 glutamate), read-out: GTPγS-hmGluR2 anGT Emax; for IC50: membranes from CHO cells transfected with human mGlu2 receptor, glutamate 60 μM (~EC80), read-out: GTPγS-hmGluR2 anGT pIC50 (converted)
T1 construct: expressed in transfected cells; host or cells: CHO cells
Source text: The compounds provided in the present invention are negative allosteric modulators of mGluR2. These compounds appear to inhibit glutamate responses by binding to an allosteric site other than the glutamate binding site. The response of mGluR2 to a concentration of glutamate is decreased when compounds of Formula (I) are present. Compounds of Formula (I) are expected to have their effect substantially at mGluR2 by virtue of their ability to reduce the function of the receptor. The effects of negative allosteric modulators tested at mGluR2 using the [^35S]GTPγS binding assay method described below and which is suitable for the identification of such compounds, and more particularly the compounds according to Formula (I), are shown in Table 7.
1) [^35S]GTPγS Binding Assay
The [^35S]GTPγS binding assay is a functional membrane-based assay used to study G-protein coupled receptor (GPCR) function whereby incorporation of a non-hydrolysable form of GTP, [^35S]GTPγS (guanosine 5′-triphosphate, labelled with […] ^35S), is measured. The G-protein a subunit catalyzes the exchange of guanosine 5′-diphosphate (GDP) by guanosine triphosphate (GTP) and on activation of the GPCR by an agonist, [^35S]GTPγS, becomes incorporated and cannot be cleaved to continue the exchange cycle (Harper (1998) Current Protocols in Pharmacology 2.6.1-10, John Wiley & Sons, Inc.). […] Here we describe the use of the [^35S]GTPγS binding assay using membranes from cells transfected with the human mGlu2 receptor and adapted from Schaffhauser et al. (Molecular Pharmacology, 2003, […]) for the detection of the negative allosteric modulation (NAM) properties of the compounds of this invention.
CHO-cells were cultured to pre-confluence and stimulated with 5 mM butyrate for 24 h. Cells were then collected by scraping in PBS and cell suspension was centrifuged (10 min at 4000 RPM in benchtop centrifuge). Supernatant was discarded and pellet gently resuspended in 50 mM Tris-HCl, pH 7.4 by mixing with an Ultra Turrax homogenizer. The suspension was centrifuged at 12,400 RPM (Sorvall F14S-6x250Y) for 10 minutes and the supernatant discarded. The pellet was homogenized in 5 mM Tris-HCl, pH 7.4 using an Ultra Turrax homogenizer and centrifuged again (13,000 RPM, 20 min, 4° C.). The final pellet was resuspended in 50 mM Tris-HCl, pH 7.4 and stored at −80° C. in appropriate aliquots before use. Protein concentration was determined by the Bradford method (Bio-Rad, USA) with bovine serum albumin as standard.
[^35S]GTPγS Binding Assay
Measurement of mGluR2 negative allosteric modulatory activity of test compounds was performed as follows. Test compounds and glutamate were diluted in assay buffer containing 10 mM HEPES acid, 10 mM HEPES salt, pH 7.4, 100 mM NaCl, 3 mM MgCl2 and 10 μM GDP. Human mGlu2 receptor-containing membranes were thawed on ice and diluted in assay buffer supplemented with 18 μg/ml saponin. Membranes were pre-incubated with compound together with a predefined (˜EC80) concentration of glutamate (60 μM) for 30 min at 30° C. After addition of [^35S]GTPγS (f.c. 0.1 nM), assay mixtures were shaken briefly and further incubated to allow [^35S]GTPγS incorporation on activation (30 minutes, 30° C.). Final assay mixtures contained 7 μg of membrane protein in 10 mM HEPES acid, 10 mM HEPES salt, pH 7.4, 100 mM NaCl, 3 mM MgCl2, 10 μM GDP and 10 μg/ml saponin. Total reaction volume was 200 μl. Reactions were terminated by rapid filtration through Unifilter-96 GF/B plates (Perkin Elmer, Massachusetts, USA) using a 96-well filtermate universal harvester. Filters were washed 6 times with ice-cold 10 mM NaH2PO4/10 mM Na2HPO4, pH 7.4. Filters were then air-dried, and 30 μl of liquid scintillation cocktail (Microscint-O) was added to each well. Membrane-bound radioactivity was counted in a Topcount.
The concentration-response curves of representative compounds of the present invention were generated using the Lexis software interface (developed at J&J). […]

Wiga Wistar rats = assay: Reversal of LY-404039-induced decrease of palpebral opening in apomorphine-challenged rats; format: in vivo; conditions: Rattus norvegicus, PO, criterion: cumulative palpebral opening score >26, read-out: ED50 APO LY-404039
Experimental: B) In Vivo Pharmacology 1) Reversal of LY-404039-induced Decrease of Palpebral Opening in Apomorphine-challenged Rats.
Male Wiga Wistar rats (Crl:WI; Charles River Germany; 220±40 g) were housed under standard laboratory conditions (21±2° C.; 50-65% relative humidity; light-dark cycle set at 12 h; lights on at 6.00 h) and fasted overnight prior to the start of the experiments (tap water remained available ad libitum). During the test period, they were housed in individual cages. Palpebral opening was scored every 5 min over the first hour after injection of apomorphine (1.0 mg/kg, i.v.) in animals either pretreated or not pretreated with LY-404039 (2.5 mg/kg, s.c.) at 1 h prior to the apomorphine injection. The animals were also pretreated with test compound or solvent at a predefined interval before apomorphine challenge. The score system was: (5) exophthalmos, (4) wide open, (3) open for three-quarters, (2) half open, (1) open for one-quarter, (0) closed. The scores for palpebral opening were cumulated over the 60-min observation period. A cumulative palpebral opening score>26 was selected for drug-induced reversal of the LY-404039-induced decrease of palpebral opening (occurrence in 3.2% of control animals pretreated with LY-404039 (n=154) versus in 99.5% of control rats not pretreated with LY-404039 (n=6335)). […]

T1 sequence (Q14416 19-872): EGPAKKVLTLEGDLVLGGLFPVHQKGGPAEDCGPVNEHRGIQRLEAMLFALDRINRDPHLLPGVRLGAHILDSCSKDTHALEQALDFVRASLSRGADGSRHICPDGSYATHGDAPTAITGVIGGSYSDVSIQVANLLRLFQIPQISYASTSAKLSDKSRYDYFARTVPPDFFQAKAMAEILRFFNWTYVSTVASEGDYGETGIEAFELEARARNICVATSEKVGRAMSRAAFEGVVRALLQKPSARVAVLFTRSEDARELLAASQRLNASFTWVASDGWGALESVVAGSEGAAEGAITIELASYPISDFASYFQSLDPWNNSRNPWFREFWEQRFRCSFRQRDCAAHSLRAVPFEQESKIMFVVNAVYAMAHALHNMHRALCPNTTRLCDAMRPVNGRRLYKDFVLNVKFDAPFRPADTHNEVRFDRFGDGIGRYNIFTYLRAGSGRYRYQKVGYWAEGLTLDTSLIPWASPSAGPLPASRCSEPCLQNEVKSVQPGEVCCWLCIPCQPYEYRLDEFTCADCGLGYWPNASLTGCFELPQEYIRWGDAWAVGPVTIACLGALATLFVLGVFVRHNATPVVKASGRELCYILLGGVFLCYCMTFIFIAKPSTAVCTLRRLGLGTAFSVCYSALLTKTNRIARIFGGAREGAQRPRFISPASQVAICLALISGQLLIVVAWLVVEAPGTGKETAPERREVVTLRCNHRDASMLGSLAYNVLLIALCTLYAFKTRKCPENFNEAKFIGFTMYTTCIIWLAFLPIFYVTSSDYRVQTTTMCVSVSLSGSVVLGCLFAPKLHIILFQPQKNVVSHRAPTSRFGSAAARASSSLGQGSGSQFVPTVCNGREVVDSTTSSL

Structure (SMILES) | ED50 (rats) [mg/kg] | melting point [°C] | Emax (human mGlu2 receptor) [%] | IC50 (human mGlu2 receptor) [nM] | ED50 (Wiga Wistar rats) [mg/kg]
Cc1nc(-c2cnn3c2C(=O)N(c2ccc(C(F)(F)F)cc2)C[C@@H]3C)c[nH]1 [Compound 4] | > 2.5 | 167.9 | 104 | 25.7 | –
C[C@H]1CN(c2ccc(C(F)(F)F)cc2)C(=O)c2c(-c3c[nH]c(-c4ccc(N)nc4)n3)cnn21 [Compound 11] | > 0.63 | 276.61 | 109 | 55 | –
Cc1[nH]c(-c2ccc(N)nc2)nc1-c1cnn2c1C(=O)N(c1ccc(C(F)(F)F)cc1)C[C@@H]2C [Compound 16] | > 0.63 | 215.62 | 108 | 186 | –
C[C@H]1CN(c2ccc(Cl)c(Cl)c2)C(=O)c2c(-c3c[nH]c(-c4ccccn4)n3)cnn21 [Compound 18] | > 0.63 | 278.31 | 110 | 9.12 | –
Cc1cc(N2C[C@H](C)n3ncc(-c4[nH]c(C5CC5)nc4C)c3C2=O)ccc1C(F)(F)F [Compound 21] | > 0.63 | 146.2 | 108 | 5.75 | –
Cc1cc(N2C[C@H](C)n3ncc(-c4c[nH]c(-c5ccccn5)n4)c3C2=O)ccc1C(F)(F)F [Compound 22] | > 0.63 | 140.5 | 110 | 16.2 | –
C[C@H]1CN(c2ccc(C(F)(F)F)c(Cl)c2)C(=O)c2c(-c3c[nH]c(C4CC4)n3)cnn21 [Compound 25] | 0.726 | – | 106 | 2 | 0.79
CC(C)c1nc(-c2cnn3c2C(=O)N(c2ccc(C(F)(F)F)c(Cl)c2)C[C@@H]3C)c[nH]1 [Compound 26] | 1.99 | 160.38 | 111 | 2.69 | –
Cc1nc(C2CC2)[nH]c1-c1cnn2c1C(=O)N(c1ccc(C(F)(F)F)c(Cl)c1)C[C@@H]2C [Compound 28] | > 0.63 | 158.23 | 111 | 3.72 | –
Cc1nc(C)c(-c2cnn3c2C(=O)N(c2ccc(C(F)(F)F)c(Cl)c2)C[C@@H]3C)[nH]1.Cl [Compound 30] | 1.99 | 270.45 | 109 | 6.31 | –
C[C@H]1CN(c2ccc(C(F)(F)F)c(Cl)c2)C(=O)c2c(-c3c[nH]c(C(N)=O)n3)cnn21 [Compound 31] | > 0.63 | 269.95 | 107 | 10.2 | –
Cc1[nH]c(-c2cccnc2)nc1-c1cnn2c1C(=O)N(c1ccc(C(F)(F)F)c(Cl)c1)C[C@@H]2C [Compound 32] | > 0.63 | 269.39 | 109 | 15.5 | –
C[C@H]1CN(c2ccc(C(F)(F)F)c(Cl)c2)C(=O)c2c(-c3c[nH]c(-c4ccc(N)nc4)n3)cnn21 [Compound 33] | > 0.63 | 286.55 | 106 | 16.2 | –
Cc1[nH]c(-c2ccc(N)nc2)nc1-c1cnn2c1C(=O)N(c1ccc(C(F)(F)F)c(Cl)c1)C[C@@H]2C [Compound 34] | > 0.63 | 280.85 | 109 | 30.9 | –
